# Assay results published in US9174964B2, “AMPK-activating piperidinyloxy-substituted 2,3-dihydro-1H-indene-1-amine compounds and pharmaceutical compositions including the same” (Rigel Pharmaceuticals, Inc., priority 2007, dated 2015).
# Where a name gives a salt, the structure may show the parent alone.
# Molecular target: AMPK
# Experiment: AMPK activation, enzyme-linked immunosorbent assay
# Type: biochemical
# Conditions: Table 2, AMPK activation, ELISA
# Experimental: Compounds 1-50 of Table 1 were assayed for their ability to activate AMPK using an enzyme-linked immunosorbent assay.
# Compounds 51-60 of Table 1 were assayed for their ability to activate AMPK using an enzyme-linked immunosorbent assay.
# Compounds 61-131 of Table 1 were assayed for their ability to activate AMPK using an enzyme-linked immunosorbent assay.
# Compounds 137-141 and 143-155 of Table 1 were assayed for their ability to activate AMPK using an enzyme-linked immunosorbent assay.
# Compounds 156-160 of Table 1 were assayed for their ability to activate AMPK using an enzyme-linked immunosorbent assay.
row,SMILES,EC50 [nM]
1,"N#Cc1ccc(CN2CC(NC(=O)c3ccc(OC4CCN(c5ccc(C(F)(F)F)cc5)CC4)cn3)C2)cc1 [Compound 41, N-(1-(4-cyanobenzyl)azetidin-3-yl)-5-(1-(4-(trifluoromethyl)phenyl)piperidin-4-yloxy)picolinamide]",100 to 500
2,"O=C(N[C@H]1CCNC1)c1ccc(OC2CCN(c3ccc(C(F)(F)F)cc3)CC2)cn1 [Compound 27, (S)-N-(pyrrolidin-3-yl)-5-(1-(4-(trifluoromethyl)phenyl)piperidin-4-yloxy)picolinamide]",> 10000
3,"O=C(NC1CCN(Cc2ccncc2)CC1)c1ccc(OC2CCN(c3ccc(C(F)(F)F)cc3)CC2)cn1 [Compound 3, N-(1-(pyridin-4-ylmethyl)piperidin-4-yl)-5-(1-(4-(trifluoromethyl)phenyl)piperidin-4-yloxy)picolinamide]",< 100
4,"O=C(NC1CCN(Cc2ccc(F)cc2)CC1)c1ccnc(OC2CCN(c3ccc(C(F)(F)F)cc3)CC2)c1 [Compound 22, N-(1-(4-fluorobenzyl)piperidin-4-yl)-2-(1-(4-(trifluoromethyl)phenyl)piperidin-4-yloxy)isonicotinamide]",1000 to 5000
5,"COC(=O)c1ccc(CN2CCC(NC(=O)c3ccc(OC4CCN(c5ccc(C#N)cc5)CC4)cn3)CC2)cc1 [Compound 7, methyl 4-((4-(5-(1-(4-cyanophenyl)piperidin-4-yloxy)picolinamido)piperidin-1-yl)methyl)benzoate]",< 100
6,"O=C(N[C@@H]1CCNC1)c1ccc(OC2CCN(c3ccc(C(F)(F)F)cc3)CC2)cn1 [Compound 24, (R)-N-(pyrrolidin-3-yl)-5-(1-(4-(trifluoromethyl)phenyl)piperidin-4-yloxy)picolinamide]",5000 to 10000
7,"O=C(NC1CCN(Cc2ccc(F)cc2)CC1)c1ccc(OC2CCN(c3ccc(C(F)(F)F)cc3)CC2)nc1 [Compound 11, N-(1-(4-fluorobenzyl)piperidin-4-yl)-6-(1-(4-(trifluoromethyl)phenyl)piperidin-4-yloxy)nicotinamide]",< 100
8,"O=C(NC1CCN(Cc2ccncc2)CC1)c1cccc(OC2CCN(c3ccc(C(F)(F)F)cc3)CC2)n1 [Compound 43, N-(1-(pyridin-4-ylmethyl)piperidin-4-yl)-6-(1-(4-(trifluoromethyl)phenyl)piperidin-4-yloxy)picolinamide]",1000 to 5000
9,"O=C(NC1CCN(Cc2ccccc2)CC1)c1ccc(OC2CCN(c3ccc(C(F)(F)F)cc3)CC2)cn1 [Compound 38, N-(1-benzylpiperidin-4-yl)-5-(1-(4-(trifluoromethyl)phenyl)piperidin-4-yloxy)picolinamide]",1000 to 5000
10,"COC(=O)c1ccc(CN2CCC(NC(=O)c3ccc(OC4CCN(c5ccc(C(F)(F)F)cc5)CC4)nc3)CC2)cc1 [Compound 45, methyl 4-((4-(6-(1-(4-(trifluoromethyl)phenyl)piperidin-4-yloxy)nicotinamido)piperidin-1-yl)methyl)benzoate]",> 10000

# Same assay, conditions: Table 3, AMPK activation, ELISA
row,SMILES,EC50 [nM]
1,"N#Cc1ccc(N2CCC(Oc3ccc(S(=O)(=O)NC4CCN(Cc5ccncc5)CC4)cn3)CC2)cc1 [Compound 52, N-(1-(pyridin-4-ylmethyl)piperidin-4-yl)-6-(1-(4-cyanophenyl)piperidin-4-yloxy)pyridine-3-sulfonamide]",100 to 500
2,"N#Cc1ccc(CN2CCC(NS(=O)(=O)c3ccc(OC4CCN(c5ccc(C(F)(F)F)cc5)CC4)nc3)CC2)cc1 [Compound 56, N-(1-(4-cyanobenzyl)piperidin-4-yl)-6-(1-(4-(trifluoromethyl)phenyl)piperidin-4-yloxy)pyridine-3-sulfonamide]",5000 to 50000
3,"N#Cc1cccc(CN2CCC(NS(=O)(=O)c3ccc(OC4CCN(c5ccc(C(F)(F)F)cc5)CC4)nc3)CC2)c1 [Compound 57, N-(1-(3-cyanobenzyl)piperidin-4-yl)-6-(1-(4-(trifluoromethyl)phenyl)piperidin-4-yloxy)pyridine-3-sulfonamide]",500 to 1000

# Same assay, conditions: Table 4, AMPK activation, ELISA
row,SMILES,EC50 [nM]
1,"O=C(NC1CCN(Cc2cccnc2)CC1)c1cc2cc(OC3CCN(c4ccc(C(F)(F)F)cc4)CC3)ccc2o1 [Compound 101, N-(1-(pyridin-3-ylmethyl)piperidin-4-yl)-5-(1-(4-(trifluoromethyl)phenyl)piperidin-4-yloxy)benzofuran-2-carboxamide]",< 100
2,"CC(C)(C)OC(=O)N1CCC(NC(=O)c2cc3cc(OC4CCN(c5ccc(C(F)(F)F)cc5)CC4)ccc3o2)CC1 [Compound 85, tert-butyl 4-(5-(1-(4-(trifluoromethyl)phenyl)piperidin-4-yloxy)benzofuran-2-carboxamido)piperidine-1-carboxylate]",500 to 1000
3,"Cc1c(C(=O)NC2CCN(C(=O)OC(C)(C)C)CC2)oc2cc(OC3CCN(c4ccc(C(F)(F)F)cc4)CC3)ccc12 [Compound 61, tert-butyl 4-(3-methyl-6-(1-(4-(trifluoromethyl)phenyl)piperidin-4-yloxy)benzofuran-2-carboxamido)piperidine-1-carboxylate]",100 to 500
4,"O=C(N[C@H]1CCNC1)c1cc2cc(OC3CCN(Cc4ccc(Cl)cc4)CC3)ccc2o1 [Compound 128, (S)-5-(1-(4-chlorobenzyl)piperidin-4-yloxy)-N-(pyrrolidin-3-yl)benzofuran-2-carboxamide]",> 50000
5,"N#Cc1ccccc1CN1CCC(NC(=O)c2cc3ccc(OC4CCN(c5ccc(OC(F)(F)F)cc5)CC4)cc3o2)CC1 [Compound 97, N-(1-(2-cyanobenzyl)piperidin-4-yl)-6-(1-(4-(trifluoromethoxy)phenyl)piperidin-4-yloxy)benzofuran-2-carboxamide]",< 100
6,"Cc1c(C(=O)NC2CCN(Cc3ccccc3C#N)CC2)oc2cc(OC3CCN(c4ccc(C(F)(F)F)cc4)CC3)ccc12 [Compound 67, N-(1-(2-cyanobenzyl)piperidin-4-yl)-3-methyl-6-(1-(4-(trifluoromethyl)phenyl)piperidin-4-yloxy)benzofuran-2-carboxamide]",< 100
7,"O=C(NC1CCN(Cc2ccccc2)CC1)c1cc2cc(OC3CCN(c4ccc(OC(F)(F)F)cc4)CC3)ccc2o1 [Compound 80, N-(1-benzylpiperidin-4-yl)-5-(1-(4-(trifluoromethoxy)phenyl)piperidin-4-yloxy)benzofuran-2-carboxamide trifluoroacetate salt]",< 100
8,"Cc1c(C(=O)NC2CCNCC2)oc2cc(OC3CCN(c4ccc(C(F)(F)F)cc4)CC3)ccc12 [Compound 62, 3-methyl-N-(piperidin-4-yl)-6-(1-(4-(trifluoromethyl)phenyl)piperidin-4-yloxy)benzofuran-2-carboxamide]",10000 to 50000
9,"N#Cc1ccccc1CN1CCC(NC(=O)c2cc3ccc(OC4CCN(c5ccc(C(F)(F)F)cc5)CC4)cc3o2)CC1 [Compound 98, N-(1-(2-cyanobenzyl)piperidin-4-yl)-6-(1-(4-(trifluoromethyl)phenyl)piperidin-4-yloxy)benzofuran-2-carboxamide]",< 100
10,"N#Cc1ccc(N2CCC(Oc3ccc4oc(C(=O)NC5CCN(Cc6ccccc6)CC5)cc4c3)CC2)cc1 [Compound 71, N-(1-benzylpiperidin-4-yl)-5-(1-(4-cyanophenyl)piperidin-4-yloxy)benzofuran-2-carboxamide formate salt]",< 100
11,"O=C(NC1CCN(Cc2ccncc2)CC1)c1cc2ccc(OC3CCN(c4ccc(C(F)(F)F)cc4)CC3)cc2o1 [Compound 87, N-(1-(pyridin-4-ylmethyl)piperidin-4-yl)-6-(1-(4-(trifluoromethyl)phenyl)piperidin-4-yloxy)benzofuran-2-carboxamide]",< 100
12,"O=C(NC1CCN(Cc2ccc(F)cc2)CC1)c1cc2ccc(OC3CCN(c4ccc(OC(F)(F)F)cc4)CC3)cc2o1 [Compound 94, N-(1-(4-fluorobenzyl)piperidin-4-yl)-6-(1-(4-(trifluoromethoxy)phenyl)piperidin-4-yloxy)benzofuran-2-carboxamide]",< 100
13,"O=C(N[C@@H]1CCN(Cc2cccnc2)C1)c1cc2cc(OC3CCN(c4ccc(C(F)(F)F)cc4)CC3)ccc2o1 [Compound 123, (R)-N-(1-(pyridin-3-ylmethyl)pyrrolidin-3-yl)-5-(1-(4-(trifluoromethyl)phenyl)piperidin-4-yloxy)benzofuran-2-carboxamide]",100 to 500
14,"CN(C(=O)c1cc2cc(OC3CCN(c4ccc(C(F)(F)F)cc4)CC3)ccc2o1)C1CCN(Cc2cccnc2)CC1 [Compound 109, N-methyl-N-(1-(pyridin-3-ylmethyl)piperidin-4-yl)-5-(1-(4-(trifluoromethyl)phenyl)piperidin-4-yloxy)benzofuran-2-carboxamide]",< 100
15,"CN(C(=O)c1cc2cc(OC3CCN(c4ccc(C(F)(F)F)cc4)CC3)ccc2o1)C1CCN(Cc2cccc(C#N)c2)CC1 [Compound 110, N-(1-(3-cyanobenzyl)piperidin-4-yl)-N-methyl-5-(1-(4-(trifluoromethyl)phenyl)piperidin-4-yloxy)benzofuran-2-carboxamide]",< 100
16,"N#Cc1ccc(CN2CCC(Oc3ccc4oc(C(=O)NC5CCN(Cc6ccccc6)CC5)cc4c3)CC2)cc1 [Compound 114, N-(1-benzylpiperidin-4-yl)-5-(1-(4-cyanobenzyl)piperidin-4-yloxy)benzofuran-2-carboxamide]",100 to 500
17,"O=C(NC1CCNCC1)c1cc2ccc(OC3CCN(c4ccc(C(F)(F)F)cc4)CC3)cc2o1 [Compound 84, N-(piperidin-4-yl)-6-(1-(4-(trifluoromethyl)phenyl)piperidin-4-yloxy)benzofuran-2-carboxamide hydrochloride]",10000 to 50000

# Same assay, conditions: Table 5, AMPK activation, ELISA
row,SMILES,EC50 [nM]
1,"O=C(NC1CCNCC1)c1cc2cc(OC3CCN(c4ccc(C(F)(F)F)cc4)CC3)ccc2s1 [Compound 150, N-(piperidin-4-yl)-5-(1-(4-(trifluoromethyl)phenyl)piperidin-4-yloxy)benzo[b]thiophene-2-carboxamide]",1000 to 50000
